Results from US8193430B2, “Methods for separating carbon nanotubes” (The University of Connecticut, priority 2008, dated 2012).
≈ marks a conversion by molar mass, not a printed value. Where two headings read alike, the source gives them in different places. Values belong to the molecule of their own block, whether it stands above or below them.

Experiments:
[1] = Solubility of lumiflavin and FC12 in various solvents; type: physicochemical; conditions: organic solvent or mixture
From the text: The facile nanotube individualization and high QYs afforded by FC12 in certain solvents, begs the question why these solvents behave so differently. The answer to this question is believed to originate from the relative solubility differences of the two FC12 sub-moieties (i.e., isoalloxazine ring and dodecyl side chain). For this, we procured 10-methyl isoalloxazine (lumiflavin), the closest analogue to the isoalloxazine ring, and investigated its solubility characteristics versus that of FC12. Table 1 tabulates the solubilities of lumiflavin and FC12 as a function of dielectric constant (∈) of various solvents. […] As solvent polarity increases (i.e., ethylacetate, THF and acetone), their solubilities increase accordingly. […] Such behavior is believed to originate from the moderate-strong H-bonding ability of pyridine and DMF, capable of dissociating the H-bonded FC12 ribbon responsible for nanotube-dispersion. […] Two distinct regimes can be discerned, with high and low QYs for low and medium polarity solvents, respectively. For both regimes, the increase in FC12 solubility was followed by a decrease in QY. Since H-bonding is responsible for both helix stability and FC12/lumiflavine dissolution, increasing solvent polarity is expected to increase the helix dissociation constant and render FC12-wrapped nanotubes more prone to bundling and less capable to desorb 1,4-endoperoxide defects. On the basis of the observed aggregation tendencies, the low QYs in regime B appear to be dominated by nanotube bundling. In low-polarity solvents, the tight helical wrapping prevents nanotube bundling, which results in higher QY. Moreover, the proportionality of the helix dissociation constant to the FC12 solubility, explains the linear dependence of 1,4-endoperoxide defect removal along the one dimensional SWNT structure.

[2] = Solubility of riboflavin in neutral aqueous media (SWNT dispersion); type: physicochemical
Protocol: A representative procedure for dispersing SWNTs with flavin mononucleotide (FMN), FAD and riboflavin involves a 4 hours cup horn sonication of SWNTs in H2O or D2O. This is followed by 2 hours of centrifugation at 15 kg, where the upper 70 to 80% of the supernatant was decanted for further investigation. As noted above, the FIG. 1 illustrates the chemical structure of riboflavin, FMN, and FAD used for such aqueous dispersion of SWNTs. While the basic flavin moiety is hydrophobic, these flavin derivatives have water-miscible tail groups. Such amphiphilic structures together with the aforementioned strong π-π interactions with both metallic and semiconducting SWNTs, can explain the effective nanotube dispersion in aqueous media.
FIG. 6 illustrates the UV-Vis-NIR spectra of HiPco dispersions with FMN, FAD, and riboflavin. The first (E11^S) and second (E22^S) optical transitions of semiconducting SWNTs can be witnessed in […] range, respectively. Those E11^S and E22^S features are clearly apparent for the FMN and FAD spectra, which are in good accordance with that of SDBS-dispersed HiPco SWNTs. […] Upon sonication of riboflavin-SWNT in basic media (pH 11), the resulting dispersions recover the aforementioned E11^S and E22^S features (data not shown), which indicates the successful dispersion of SWNTs. […]

solubility ([1]; DMF (N,N-dimethyl formamide), in DMF, read-out: Lumiflavin solubility): 317 µg/mL (≈ 1240 µM)
solubility ([1]; THF (tetrahydrofuran), in THF, read-out: Lumiflavin solubility): 46.2 µg/mL (≈ 180 µM)
solubility ([1]; in acetone, read-out: Lumiflavin solubility): 53.9 µg/mL (≈ 210 µM)
solubility ([1]; in benzene, read-out: Lumiflavin solubility): 4.4 µg/mL (≈ 17.2 µM)
solubility ([1]; in ethylacetate, read-out: Lumiflavin solubility): 14.1 µg/mL (≈ 55 µM)
solubility ([1]; in o-xylene, read-out: Lumiflavin solubility): 5.9 µg/mL (≈ 23 µM)
solubility ([1]; in pyridine, read-out: Lumiflavin solubility): 529 µg/mL (≈ 2060 µM)
solubility ([1]; in toluene, read-out: Lumiflavin solubility): 4.3 µg/mL (≈ 16.8 µM)
SMILES: Cc1cc2nc3c(=O)[nH]c(=O)nc-3n(C)c2cc1C [Lumiflavin]

solubility ([1]; DMF (N,N-dimethyl formamide), in DMF, read-out: FC12 solubility): 22900 µg/mL (≈ 55700 µM)
solubility ([1]; THF (tetrahydrofuran), in THF, read-out: FC12 solubility): 11000 µg/mL (≈ 26900 µM)
solubility ([1]; in acetone, read-out: FC12 solubility): 1810 µg/mL (≈ 4410 µM)
solubility ([1]; in benzene, read-out: FC12 solubility): 310 µg/mL (≈ 755 µM)
solubility ([1]; in ethylacetate, read-out: FC12 solubility): 510 µg/mL (≈ 1240 µM)
solubility ([1]; in o-xylene, read-out: FC12 solubility): 250 µg/mL (≈ 609 µM)
solubility ([1]; in pyridine, read-out: FC12 solubility): 70400 µg/mL (≈ 171000 µM)
solubility ([1]; in toluene, read-out: FC12 solubility): 230 µg/mL (≈ 560 µM)
SMILES: CCCCCCCCCCCCn1c2nc(=O)[nH]c(=O)c-2nc2cc(C)c(C)cc21 [FC12, 10-dodecyl-7,8-dimethyl-10H-benzo[g]pteridine-2,4-dione]

solubility in neutral aqueous media [2]: insolubility
SMILES: Cc1cc2nc3c(=O)[nH]c(=O)nc-3n(C[C@H](O)[C@H](O)[C@H](O)CO)c2cc1C [riboflavin]
